Assay results published in US7988950B2, “Contrast agents endowed with high relaxivity for use in magnetic resonance imaging (MRI) which contain a chelating moiety with polyhydroxylated substituents” (Bracco Imaging S.p.A., priority 2004, dated 2011).

Assay: Relaxivity determination (r1p) of Gd complexes at 298 K, 20 MHz, pH 7
Format: physicochemical
Conditions: Table 5; 298 K, 20 MHz, pH 7; q=1 derivatives of the DTPA-monophosphonate backbone
From the text: As far as the relaxation enhancement property is concerned, a paramagnetic Gd(III) complex is characterized by its relaxivity (r1p) which represents the increase of the proton relaxation rate of an aqueous solution of the Gd(III) complex in comparison to the proton relaxation rate of neat water (R1^o). The relaxivity is usually measured at 298 K and 20 MHz (0.5 T).
In order to best evaluate the relaxivity properties and the parameters affecting the relaxivity of the agents of the invention, some comparative tests have been performed. In a first experiment, the relaxivity of a number of Gd-based chelated compounds having different molecular weight, all derived from the following [Gd(DTPA-monophosphonate)]^3− basic backbone structure (r1p at 20 MHz and 298K: 6.1 mM^−1s^−1) of formula
Tested compounds include the Gd-complex of the chelating compounds 1b and 2b of the invention (hereinafter Gd-1b and Gd-2b) as well as a number of different derivatives of the aforementioned backbone moiety selected in order to cover a range of molecular weights of up to about 1800 Dalton. The relaxivity of all of the tested compounds were measured at 298 K and 20 MHz and pH 7. The obtained values, listed in table 5 below (together with the structure of the compounds) have also been plotted against the MW of the complexes (see FIG. 1).
A second experiment was performed to test the relaxivity of different compounds of the invention, marketed NSA, known LDA and other systems, all containing one coordinated water molecule (q=1). The data were registered at 298K and 20 MHz and pH=7, and plotted against their corresponding MW. Relaxivity data relating to LDA P760 and P792 (LDA contrast agents) are based on literature cited below.
In addition to the above, please find below as per table 7, other relaxivity values, measured as above indicated, for some other representative compounds of the invention.

Compound	R1p [mM⁻¹ s⁻¹]
O=C(O)CN(CCN(CCN(CC(=O)O)[C@@H](Cc1ccccc1)C(=O)O)CP(=O)(O)O)[C@@H](Cc1ccccc1)C(=O)O [B 22606]	7.7
O=C(O)CN(CCN(CCN(CC(=O)O)[C@@H](COCc1ccccc1)C(=O)O)CP(=O)(O)O)[C@@H](COCc1ccccc1)C(=O)O [B 22666]	7.9
O=C(O)CN(CCN(CCN(CC(=O)O)[C@@H](Cc1c[nH]c2ccccc12)C(=O)O)CP(=O)(O)O)C(Cc1c[nH]c2ccccc12)C(=O)O (stereo partly drawn) [B 22836]	7.9

Same assay, conditions: Table 6; 298K, 20 MHz, pH=7; q=1

Compound	R1p [mM⁻¹ s⁻¹]
O=C(O)CN(CCN(CC(=O)O)CC(=O)O)CCN(CC(=O)O)CC(=O)O [Gd-DTPA]	4.7
O=C(O)CN1CCN(CC(=O)O)CCN(CC(=O)O)CCN(CC(=O)O)CC1 [Gd-DOTA]	4.7
O=C(O)CN1CCN(C(COCc2ccccc2)C(=O)O)CCN(C(COCc2ccccc2)C(=O)O)CCN(C(COCc2ccccc2)C(=O)O)CC1 (stereo not drawn) [Compound B19406]	7.5
O=C(O)CN1CCN(C(COCc2ccccc2)C(=O)O)CCN(CC(=O)O)CCN(C(COCc2ccccc2)C(=O)O)CC1 (stereo not drawn) [Compound B19236]	6.5
O=C(CCC(C(=O)O)N1CCN(C(CCC(=O)NCC(COCC(COC(CO)CO)COC(CO)CO)COCC(COC(CO)CO)COC(CO)CO)C(=O)O)CCN(C(CCC(=O)NCC(COCC(COC(CO)CO)COC(CO)CO)COCC(COC(CO)CO)COC(CO)CO)C(=O)O)CCN(C(CCC(=O)NCC(COCC(COC(CO)CO)COC(CO)CO)COCC(COC(CO)CO)COC(CO)CO)C(=O)O)CC1)NCC(COCC(COC(CO)CO)COC(CO)CO)COCC(COC(CO)CO)COC(CO)CO (stereo not drawn) [Gd-3c]	19.6
O=C(CCC(C(=O)O)N1CCN(C(CCC(=O)NCC(COC(CO)CO)COC(CO)CO)C(=O)O)CCN(C(CCC(=O)NCC(COC(CO)CO)COC(CO)CO)C(=O)O)CCN(C(CCC(=O)NCC(COC(CO)CO)COC(CO)CO)C(=O)O)CC1)NCC(COC(CO)CO)COC(CO)CO (stereo not drawn) [Gd-1c]	13.84
O=C(O)CN1CCN(CC(=O)O)CCN(C(COCc2ccccc2)C(=O)O)CCN(CC(=O)O)CC1 (stereo not drawn) [Compound B19106]	5.5
CC(CO)(CO)COCC(CNC(=O)CCC(C(=O)O)N1CCN(C(CCC(=O)NCC(COCC(C)(CO)CO)COCC(C)(CO)CO)C(=O)O)CCN(C(CCC(=O)NCC(COCC(C)(CO)CO)COCC(C)(CO)CO)C(=O)O)CCN(C(CCC(=O)NCC(COCC(C)(CO)CO)COCC(C)(CO)CO)C(=O)O)CC1)COCC(C)(CO)CO (stereo not drawn) [Gd-2c]	15

Same assay, conditions: Table 7; measured as above indicated (298 K, 20 MHz)

Compound	R1p [mM⁻¹ s⁻¹]
O=C(CC[C@@H](C(=O)O)N1CCN([C@@H](CCC(=O)NC(COC2OC(CO)C(O)C(O)C2O)(COC2OC(CO)C(O)C(O)C2O)COC2OC(CO)C(O)C(O)C2O)C(=O)O)CCN([C@@H](CCC(=O)NC(COC2OC(CO)C(O)C(O)C2O)(COC2OC(CO)C(O)C(O)C2O)COC2OC(CO)C(O)C(O)C2O)C(=O)O)CCN([C@@H](CCC(=O)NC(COC2OC(CO)C(O)C(O)C2O)(COC2OC(CO)C(O)C(O)C2O)COC2OC(CO)C(O)C(O)C2O)C(=O)O)CC1)NC(COC1OC(CO)C(O)C(O)C1O)(COC1OC(CO)C(O)C(O)C1O)COC1OC(CO)C(O)C(O)C1O (stereo partly drawn) [Gd-7c]	20.4
O=C(O)CCC(C(=O)O)N1CCN(Cc2cccc(C(=O)NCC(CNC(=O)C(O)C(O)C(O)C(O)CO)(CNC(=O)C(O)C(O)C(O)C(O)CO)CNC(=O)C(O)C(O)C(O)C(O)CO)c2)CCN(C(CCC(=O)O)C(=O)O)CCN(C(CCC(=O)O)C(=O)O)CC1 (stereo not drawn) [Gd-1d]	24
CC1(N(CC(=O)O)CC(=O)O)CN(C(CCC(=O)N(CCN(CCC(=O)NC(CO)(CO)CO)CCC(=O)NC(CO)(CO)CO)CCN(CCC(=O)NC(CO)(CO)CO)CCC(=O)NC(CO)(CO)CO)C(=O)O)CCN(C(CCC(=O)N(CCN(CCC(=O)NC(CO)(CO)CO)CCC(=O)NC(CO)(CO)CO)CCN(CCC(=O)NC(CO)(CO)CO)CCC(=O)NC(CO)(CO)CO)C(=O)O)C1 (stereo not drawn) [Gd-15a]	16.7

Assay: 1/T1 NMRD profiles / relaxivity over a range of magnetic field strengths
Format: physicochemical
Conditions: 25° C., 1 mM aqueous solution; from 0.2 to 3 MHz
From the text: As an example, the relaxivity profile of the gadolinium complex of the chelating ligand of the invention 2b (hereinafter referred to as Gd-2b), in the above magnetic field range, has been compared with that of a marketed NSA, i.e. Magnevist®, and that of a blood pool agent, i.e. the macromolecular adduct between Gd-DTPA(BOM)3 and BSA (Bovine Serum Albumin) (FIG. 6).
The corresponding profile for the above blood pool agent is quite different.
The stability of the relaxivity properties shown by the compounds of the invention was tested. In a first experiment, the 1/T1 NMRD profiles for some compounds of the invention were acquired over a range of magnetic field strengths ranging from 0.01 to 130 MHz. The profile shown by the Gd-1b chelated compound of the invention is included in FIG. 4, while corresponding profiles for chelated compounds Gd-1c, Gd-2c and Gd-3c are included in FIGS. 5 and 5 bis. A comparison has been also performed for compound Gd-2b over a corresponding profile registered for GD-DTPA (Magnevist®), a marketed NSA, and for GD-DOTA-BSA, a well known blood pool agent.
Conversely, the relaxivity improvement shown by the blood pool agent rapidly falls dawn over the same range of magnetic field strength.

Compound	relaxivity profile over magnetic field strength (NMRD)
Gd-DTPA	quite stable though very low
